Experimental data as given in PMC5840262, “Design, Synthesis and Evaluation of Branched RRWQWR-Based Peptides as Antibacterial Agents Against Clinically Relevant Gram-Positive and Gram-Negative Pathogens” (Frontiers in Microbiology, 2018).
Ends that are not written are not given here.

Columns and labels:
Format in all cases: cell-based
[1] = system: Staphylococcus aureus clinical isolate 48,575; conditions: S. aureus isolate 48,575; for MIC50: broth microdilution, 24 h 37°C, OD620, 50% growth inhibition; for MBC: plated on agar 18 h 37°C, 99.9% reduction
Protocol: (§1) For the clinical isolates, we used 20 different isolates from the Public Health Reference Laboratory collection of the Secretaría de Salud del Distrito (SdSD; Bogotá, Colombia). The samples were collected from June to December 2016. For each isolate, the patient parameters (age, gender and location) and the culture site were recorded for epidemiologic monitoring (Table 1). All isolates had been previously tested for antibiotic sensitivity at the Public Health Microbiology Laboratory using either the Phoenix™ system (Gram-positive) or the VITEK 2 system (Gram-negative).
(§2) We screened all five peptides against the ATCC reference strains and the clinical isolates according to Method M7-A7 of the National Committee for Clinical Laboratory Standards (CLSI, [2007]). The MIC50 and MBC values were determined using a broth microdilution and growth inhibition method previously reported by Leon-Calvijo et al. ([2015]), with some modifications (Wiegand et al., [2008]). Briefly, the MIC50 experiments comprised a liquid-inhibition growth assay in a sterile, untreated, 96-well flat-bottom tissue culture plate. The bacteria were cultured overnight n Mueller Hinton agar; three colonies were transferred to 8 mL of Mueller Hilton broth and incubated at 37°C until the mid-exponential phase of growth. The turbidity of the cultures was measured and adjusted spectrophotometrically to a McFarland standard of 0.5, and then diluted to a final concentration of 5 × 10^7 colony forming units (CFU) per well. Stock solutions (2,000 μM) of each test peptide were serially diluted to final concentrations (per well) of 200, 100, 50, 25, 12.5, and 6.25 μM. Each concentration was evaluated in duplicate and each assay was performed in triplicate.
(§3) Wells containing Mueller Hilton broth with bacterial inoculum only served as bacterial-growth controls. Additional controls included Mueller Hilton broth alone (as blank) and Mueller Hilton broth with ciprofloxacin (2 μg/mL; as positive control). The microplate was incubated for 24 h at 37°C, and growth inhibition was measured by monitoring the optical density at 620 nm (OD620). The MIC50 was defined as the peptide concentration at which bacterial growth was inhibited by 50%.
(§4) To determine the MBC, an aliquot from each well of the MIC50 assay was spread onto Mueller Hilton agar. After 18 h at 37°C, the concentration that inhibited bacterial growth was determined. Each of these tests was performed four times. MBC was defined as the lowest concentration of peptide at which the number of bacteria was reduced by 99.9% in vitro (European Committee for Antimicrobial Susceptibility Testing, [2000]).

[2] = system: Klebsiella pneumoniae clinical isolate 51,048; conditions: K. pneumoniae isolate 51,048; for MIC50: broth microdilution, 24 h 37°C, OD620, 50% growth inhibition; for MBC: plated on agar 18 h 37°C, 99.9% reduction
Protocol: as §1, §2, §3, §4

[3] = system: Pseudomonas aeruginosa clinical isolate 48,458; conditions: P. aeruginosa isolate 48,458; for MIC50: broth microdilution, 24 h 37°C, OD620, 50% growth inhibition; for MBC: plated on agar 18 h 37°C, 99.9% reduction
Protocol: as §1, §2, §3, §4

[4] = system: Pseudomonas aeruginosa clinical isolate 48,221; conditions: P. aeruginosa isolate 48,221; for MIC50: broth microdilution, 24 h 37°C, OD620, 50% growth inhibition; for MBC: plated on agar 18 h 37°C, 99.9% reduction
Protocol: as §1, §2, §3, §4

[5] = system: Staphylococcus aureus clinical isolate 43,337; conditions: S. aureus isolate 43,337; for MIC50: broth microdilution, 24 h 37°C, OD620, 50% growth inhibition; for MBC: plated on agar 18 h 37°C, 99.9% reduction
Protocol: as §1, §2, §3, §4

[6] = system: Enterococcus faecium clinical isolate 550; conditions: E. faecium isolate 550; for MIC50: broth microdilution, 24 h 37°C, OD620, 50% growth inhibition; for MBC: plated on agar 18 h 37°C, 99.9% reduction
Protocol: as §1, §2, §3, §4

[7] = system: Pseudomonas aeruginosa clinical isolate 47,661; conditions: P. aeruginosa isolate 47,661; for MIC50: broth microdilution, 24 h 37°C, OD620, 50% growth inhibition; for MBC: plated on agar 18 h 37°C, 99.9% reduction
Protocol: as §1, §2, §3, §4

[8] = system: Enterococcus faecium clinical isolate 1,040; conditions: E. faecium isolate 1,040; for MIC50: broth microdilution, 24 h 37°C, OD620, 50% growth inhibition; for MBC: plated on agar 18 h 37°C, 99.9% reduction
Protocol: as §1, §2, §3, §4

[9] = system: Klebsiella pneumoniae clinical isolate 50,181; conditions: K. pneumoniae isolate 50,181; for MIC50: broth microdilution, 24 h 37°C, OD620, 50% growth inhibition; for MBC: plated on agar 18 h 37°C, 99.9% reduction
Protocol: as §1, §2, §3, §4

[10] = system: Staphylococcus aureus clinical isolate 43,062; conditions: S. aureus isolate 43,062; for MIC50: broth microdilution, 24 h 37°C, OD620, 50% growth inhibition; for MBC: plated on agar 18 h 37°C, 99.9% reduction
Protocol: as §1, §2, §3, §4

[11] = system: Klebsiella pneumoniae clinical isolate 51,009; conditions: K. pneumoniae isolate 51,009; for MIC50: broth microdilution, 24 h 37°C, OD620, 50% growth inhibition; for MBC: plated on agar 18 h 37°C, 99.9% reduction
Protocol: as §1, §2, §3, §4

[12] = system: Klebsiella pneumoniae clinical isolate 50,424; conditions: K. pneumoniae isolate 50,424; for MIC50: broth microdilution, 24 h 37°C, OD620, 50% growth inhibition; for MBC: plated on agar 18 h 37°C, 99.9% reduction
Protocol: as §1, §2, §3, §4

[13] = system: Enterococcus faecium clinical isolate 1,225; conditions: E. faecium isolate 1,225; for MIC50: broth microdilution, 24 h 37°C, OD620, 50% growth inhibition; for MBC: plated on agar 18 h 37°C, 99.9% reduction
Protocol: as §1, §2, §3, §4

[14] = system: Pseudomonas aeruginosa clinical isolate 48,220; conditions: P. aeruginosa isolate 48,220; for MIC50: broth microdilution, 24 h 37°C, OD620, 50% growth inhibition; for MBC: plated on agar 18 h 37°C, 99.9% reduction
Protocol: as §1, §2, §3, §4

[15] = system: Staphylococcus aureus clinical isolate 52,013; conditions: S. aureus isolate 52,013; for MIC50: broth microdilution, 24 h 37°C, OD620, 50% growth inhibition; for MBC: plated on agar 18 h 37°C, 99.9% reduction
Protocol: as §1, §2, §3, §4

[16] = system: Pseudomonas aeruginosa clinical isolate 48,526; conditions: P. aeruginosa isolate 48,526; for MIC50: broth microdilution, 24 h 37°C, OD620, 50% growth inhibition; for MBC: plated on agar 18 h 37°C, 99.9% reduction
Protocol: as §1, §2, §3, §4

| Substance | MIC50 [1] [µM] | MBC [1] [µM] | MIC50 [2] [µM] | MBC [2] [µM] | MIC50 [3] [µM] | MBC [3] [µM] | MIC50 [4] [µM] | MBC [4] [µM] | MIC50 [5] [µM] | MBC [5] [µM] | MIC50 [6] [µM] | MBC [6] [µM] | MIC50 [7] [µM] | MBC [7] [µM] | MIC50 [8] [µM] | MBC [8] [µM] | MIC50 [9] [µM] | MBC [9] [µM] | MIC50 [10] [µM] | MBC [10] [µM] | further results |
| --- | --- | --- | --- | --- | --- | --- | --- | --- | --- | --- | --- | --- | --- | --- | --- | --- | --- | --- | --- | --- | --- |
| (RRWQWR)4K2Ahx2C2 (disulfide) [LfcinB (20–25)4, branched tetrameric peptide (RRWQWR)4K2Ahx2C2, two dimers linked by a cysteine disulfide bridge] | 9.2 | 12.5 | 5.2 | 50.0 | 72.8 | >100 | 11.9 | 50.0 | 6.3 | 12.5 | >100 | 12.5 | 7.5 | 25.0 | >100 | >100 | 5.5 | 100.0 | 6.7 | 12.5 | MIC50 [11]: 1.6 µM; MBC [11]: 25.0 µM; MIC50 [12]: 7.8 µM; MBC [12]: 100.0 µM; MIC50 [13]: >100 µM; MBC [13]: 12.5 µM; MIC50 [14]: 12.6 µM; MBC [14]: 25.0 µM; MIC50 [15]: 6.7 µM; MBC [15]: 12.5 µM; MIC50 [16]: 24.9 µM; MBC [16]: >100 µM |
| RRWQWR-NH2 [LfcinB (20–25), reference compound] | 3.7 | >100 | >100 | >100 | >100 | >100 | >100 | >100 | 3.7 | >100 | >100 | >100 | >100 | >100 | >100 | >100 | >100 | >100 | 5.1 | >100 | MIC50 [11]: >100 µM; MBC [11]: >100 µM; MIC50 [12]: 11.3 µM; MBC [12]: >100 µM; MIC50 [13]: >100 µM; MBC [13]: >100 µM; MIC50 [14]: >100 µM; MBC [14]: >100 µM; MIC50 [15]: 5.1 µM; MBC [15]: >100 µM; MIC50 [16]: >100 µM; MBC [16]: >100 µM |
